One test has as its target Carbonic anhydrase 2 (Homo sapiens, UniProt P00918). Description: CA Enzyme Assay. As to conditions: pH 10. How it is done: (§1) CA activity was measured by the Maren method which is based on determination of the time required for the pH to decrease from 10.0 to 7.4 due to CO2 hydration [Maren et al., J. Pharm. Exp. Ther., 130:2629-2634]. The assay solution was 0.5 M Na2CO3/0.1 M NaHCO3 (pH 10.0) and Phenol Red was added as the pH indicator.

Another test has as its target Carbonic anhydrase 1 (Homo sapiens, UniProt P00915). The test can be described thus: CA Enzyme Assay. As to conditions: pH 10. On the procedure:
as §1

Chain of Carbonic anhydrase 1 (P00915 whole entry): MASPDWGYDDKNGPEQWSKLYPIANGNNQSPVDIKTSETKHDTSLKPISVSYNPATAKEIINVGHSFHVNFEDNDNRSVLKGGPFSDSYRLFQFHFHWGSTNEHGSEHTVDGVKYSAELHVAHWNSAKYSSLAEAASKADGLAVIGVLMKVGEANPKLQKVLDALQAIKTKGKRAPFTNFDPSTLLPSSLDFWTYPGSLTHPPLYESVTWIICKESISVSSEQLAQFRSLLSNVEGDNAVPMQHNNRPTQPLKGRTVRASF

Regarding `CCOCCN1CN(Cc2cc(=O)oc3c(O)c(O)ccc23)c2ccccc21` [1-(2-Ethoxyethyl)-3-(4-methyl-7,8-dihydroxy-2H-chromen-2-one)benzimidazolium chloride (3e)], the IC50 (as a rule, the concentration that inhibits the measured activity by half) turned out to be 33.2 µM at Carbonic anhydrase 2 and 32.9 µM on Carbonic anhydrase 1.
For `Cc1cccc(CN2CN(Cc3cc(=O)oc4c(O)c(O)ccc34)c3ccccc32)c1` [1-(3-Methylbenzyl)-3-(4-methyl-7,8-dihydroxy-2H-chromen-2-one)benzimidazolium chloride (3g)], in that order: 28.9 µM and 22.1 µM.
For `C=CCN1CN(Cc2cc(=O)oc3c(O)c(O)ccc23)c2ccccc21` [1-Allyl-3-(4-methyl-7,8-dihydroxy-2H-chromen-2-one)benzimidazolium chloride (3c)], in that order: 29.7 µM and 48.1 µM.
As for `COCCN1CN(Cc2cc(=O)oc3c(O)c(O)ccc23)c2ccccc21` [1-(2-Methoxyethyl)-3-(4-methyl-7,8-dihydroxy-2H-chromen-2-one)benzimidazolium chloride (3d)], the IC50 on Carbonic anhydrase 2 turned out to be 41.4 µM; on Carbonic anhydrase 1, 32.6 µM.

For the origin of these results see BindingDB's records for doi:10.3109/14756366.2012.677838 (Inonu University, 2013).
